Read-outs that look alike come from different tables or passages of the source. Peptide text beside a SMILES is read from it.
Text: All subjects who met eligibility criteria were confined to the clinical research unit from […] through Day 3. At admission, physical examination, vital signs, 12 lead ECG and weight were obtained, medical and medication history were updated if necessary, safety blood tests (hematology and chemistry), urinalysis, urine drug screen and an alcohol breath test were repeated and a urine pregnancy test was done for women of childbearing potential.
At each dose level, there were 2 sentinel subjects, (1 active, 1 placebo), who were dosed at least 48 hours in advance of the other subjects in their respective group. Following review of safety data, including physical examination, vital signs, and review of adverse events from the first 2 subjects, enrolment in the cohort continued.
A 12-lead ECG was performed on Day 1, within 60 minutes of infusion start (in triplicate), mid-way through the infusion, at the completion of the infusion, 30 minutes after completion of the infusion and at various timepoints following the end of the infusion.
Vital signs were recorded within 60 minutes pre-dose, at the mid-point of the infusion and post dose vitals were assessed at completion of the infusion, 0.5, 1, 2, 3, 4, 6, 9, 12, 24 and 48 hours post dose, after at least 3 minutes of rest in supine position.
Subjects returned to the study center 7 days after dosing, for the termination visit. A full physical examination, vital signs and weight were obtained, concomitant medications were updated if necessary, safety blood specimens (haematology and chemistry, PT and aPTT) and urine were collected for urinalysis and urine drug screening. A serum pregnancy test was done for women of childbearing potential and a 12-lead ECG was performed.
In this study dose limiting toxicity (DLT) was defined as any drug related ≥Grade 3 AEs occurring despite optimal therapeutic interventions (which included but were not limited to allergic/hypersensitivity reactions, dermatological reactions/infusion site reactions, haematological toxicities such as neutropenia, thrombocytopenia and anaemia and clinical chemistry abnormalities) experienced up to Day 7 (Termination Visit).
(§1) All subjects who received any amount of study drug were included in the safety analysis (Safety population).
The study was a double blinded, randomized, placebo-controlled study. The placebo administered was 0.9% sodium chloride.
On Day 1 (day of dosing), subjects were randomly assigned either peptide IV or Placebo IV. At each dose level, there were 2 sentinel subjects, (1 active, 1 placebo), who were dosed at least 48 hours in advance of the other subjects in their respective group. Following review of safety data, including physical examination, vital signs, and review of adverse events from the first 2 subjects, enrolment in the cohort continued. All subjects who met eligibility criteria were confined to the clinical research unit from Day −2 through Day 3. At admission, physical examination, vital signs, 12 lead ECG and weight were obtained, medical and medication history were updated if necessary, safety blood tests (hematology and chemistry), urinalysis, urine drug screen and an alcohol breath test were repeated and a urine pregnancy test was done for women of childbearing potential.
as §1

[1] = Cohort 1: 0.05 mg/kg IV 1-hr infusion (N = 6)
[2] = Cohort 1: 0.05 mg/kg IV 1 hour infusion, subject 001-S008
[3] = Cohort 4 0.05 mg/kg IV 2-hr infusion, participant 001-S086

CC(C)[C@H](NC(=O)[C@H](Cc1c[nH]c2ccccc12)NC(=O)[C@H](CCCNC(=N)N)NC(=O)[C@H](CCCNC(=N)N)NC(=O)[C@@H](NC(=O)[C@@H](NC(=O)[C@H](CCCNC(=N)N)NC(=O)[C@@H](NC(=O)[C@@H](NC(=O)[C@H](CCCNC(=N)N)NC(=O)[C@H](CCCNC(=N)N)NC(=O)[C@H](Cc1c[nH]c2ccccc12)NC(=O)[C@@H](NC(=O)[C@H](CCCNC(=N)N)NC(=O)[C@H](CCCNC(=N)N)NC(=O)[C@@H](NC(=O)[C@H](CCCNC(=N)N)NC(=O)[C@H](CCCNC(=N)N)NC(=O)[C@@H](NC(=O)[C@H](Cc1c[nH]c2ccccc12)NC(=O)[C@H](CCCNC(=N)N)NC(=O)[C@@H](N)CCCNC(=N)N)C(C)C)C(C)C)C(C)C)C(C)C)C(C)C)C(C)C)C(C)C)C(=O)N[C@@H](CCCNC(=N)N)C(=O)N[C@@H](CCCNC(=N)N)C(N)=O [SEQ ID NO: 1] (H-RRWVRRVRRVWRRVVRVVRRWVRR-NH2)
2: TEAE by system organ class: Nervous System Disorders, occurrences m [1]
2 (33.3%): TEAE by system organ class: Nervous System Disorders, participants n (%) [1]
3: TEAE by system organ class: Injury, Poisoning, and Procedural Complications, occurrences m [1] | participants with IRRs (Cohort 4, 0.5 mg/kg over 2 hours in 250 mL)
3 (30.0%): TEAE by system organ class: Injury, Poisoning, and Procedural Complications, participants n (%) [1]
1 (16.7%): Participants With At Least 1 Treatment-Related TEAE, n (%) [1] | TEAE by system organ class: Gastrointestinal Disorders, participants n (%) [1] | TEAE by system organ class: General Disorders and Administration Site Conditions, participants n (%) [1] | Treatment-related TEAE: General Disorders and Administration Site Conditions, participants n (%) [1] | Treatment-related TEAE: Vessel puncture site erythema, participants n (%) [1]
7: Participants With At Least 1 TEAE, occurrences m [1] | TEAE Severity Grade 1, m [1] | TEAE severity Grade 1, occurrences m [1]
Day 1/6 hours: Infusion related reaction: End Date/Time [2]
4: IRRs, events (Cohort 4, 0.5 mg/kg over 2 hours in 250 mL, all Grade 1, no study drug interruption)
0: TEAE Severity Grade 2, n (%) [1] | TEAE by system organ class: Blood and Lymphatic System Disorders, participants n (%) [1] | TEAE by system organ class: Infections and Infestations, participants n (%) [1] | TEAE by system organ class: Musculoskeletal and Connective Tissue Disorders, participants n (%) [1] | TEAE by system organ class: Respiratory, Thoracic, and Mediastinal disorders, participants n (%) [1] | TEAE by system organ class: Skin and Subcutaneous Tissue Disorders, participants n (%) [1] | TEAE by system organ class: Vascular Disorders, participants n (%) [1] | TEAE severity Grade 2, participants n (%) [1] | TEAE severity Grade 3, participants n (%) [1] | TEAE severity Grade 4, participants n (%) [1] | TEAE severity Grade 5, participants n (%) [1] | Treatment-related TEAE: Abdominal distension, participants n (%) [1] | Treatment-related TEAE: Blood and Lymphatic System Disorders, participants n (%) [1] | Treatment-related TEAE: Constipation, participants n (%) [1] | Treatment-related TEAE: Diarrhea, participants n (%) [1] | Treatment-related TEAE: Dizziness, participants n (%) [1] | Treatment-related TEAE: Feeling hot, participants n (%) [1] | Treatment-related TEAE: Gastrointestinal Disorders, participants n (%) [1] | Treatment-related TEAE: Headache, participants n (%) [1] | Treatment-related TEAE: Infusion related reaction, participants n (%) [1] | Treatment-related TEAE: Infusion site discomfort, participants n (%) [1] | Treatment-related TEAE: Infusion site pain, participants n (%) [1] | Treatment-related TEAE: Infusion site reaction, participants n (%) [1] | Treatment-related TEAE: Infusion site swelling, participants n (%) [1] | Treatment-related TEAE: Injury, Poisoning, and Procedural Complications, participants n (%) [1] | Treatment-related TEAE: Macule, participants n (%) [1] | Treatment-related TEAE: Musculoskeletal and Connective Tissue Disorders, participants n (%) [1] | Treatment-related TEAE: Myalgia, participants n (%) [1] | Treatment-related TEAE: Nervous system disorders, participants n (%) [1] | Treatment-related TEAE: Oropharyngeal pain, participants n (%) [1] | Treatment-related TEAE: Orthostatic hypotension, participants n (%) [1] | Treatment-related TEAE: Phlebitis, participants n (%) [1] | Treatment-related TEAE: Respiratory, Thoracic, and Mediastinal disorders, participants n (%) [1] | Treatment-related TEAE: Skin and Subcutaneous Tissue Disorders, participants n (%) [1] | Treatment-related TEAE: Thrombocytopenia, participants n (%) [1] | Treatment-related TEAE: Vascular Disorders, participants n (%) [1] | Treatment-related TEAE: Vessel puncture site pain, participants n (%) [1] | Treatment-related TEAE: Vomiting, participants n (%) [1] | Number of Participants Reporting at least: One Dose-Limiting Toxicity, n (%) (Cohort 2: […] IV 1-hr infusion (N = 6)) | Number of Participants Reporting at least: One Dose-Limiting Toxicity, n (%) (Cohort 3: […] IV 1-hr infusion (N = 5)) | Number of Participants Reporting at least: One Dose-Limiting Toxicity, n (%) (Cohort 3b: […] IV 2-hr infusion (N = 6)) | Number of Participants Reporting at least: Onc TEAE Leading to Study Withdrawal, n (%) (Cohort 4: 0.5 mg/kg IV 2-hr infusion (N = 6))
Grade 1: Infusion related reaction: Severity Grade [2] | Severity of event: Localized IRR at right arm and shoulder ache [3] | Severity of event: Myalgia [3]
1: Participants With At Least 1 Treatment-Related TEAE, occurrences m [1] | TEAE by system organ class: Gastrointestinal Disorders, occurrences m [1] | TEAE by system organ class: General Disorders and Administration Site Conditions, occurrences m [1] | Treatment-related TEAE: General Disorders and Administration Site Conditions, occurrences m [1] | Treatment-related TEAE: Vessel puncture site erythema, occurrences m [1]
5 (83.3%): TEAE Severity Grade 1, n (%) [1] | TEAE severity Grade 1, participants n (%) [1]

— US20240115654A1, “INTRAVENOUS ADMINISTRATION OF ENGINEERED ANTIMICROBIAL AMPHIPHILIC PEPTIDES” (priority 2021, published 2024)
